Results: article PMC8742467, “Therapeutical interference with the epigenetic landscape of germ cell tumors: a comparative drug study and new mechanistical insights” (Clinical Epigenetics, 2022)

Experiments:
2102EP (EC) = experiment: XTT cell viability assay, 2102EP; assay type: cell-based; details: Homo sapiens; after 48 h, XTT, n = 4; read-out: EC50 colour/symbol code, EC 2102EP
Experimental: (§1) The […] (XTT) assays were performed as described previously. In summary, for GCT and fibroblast cell lines 5 × 10^3 cells (3 × 10^3 for UC, PCa and RCC cell lines) per 96-well were seeded and different drug concentrations (see Additional file 2: Fig. S2, Additional file 3: Fig. S3) or corresponding solvents were added to the cells the following day. For drug details see Additional file 12: Table S2 C. Each condition was analyzed in four technical replicates and EC50 values were calculated by GraphPad Prism v8.

[1] = test system: EC-R (cisplatin-resistant embryonal carcinoma subclones); experiment: XTT cell viability assay, mean per entity EC-R; assay type: cell-based; details: Homo sapiens, after 48 h
Experimental: as §1

[2] = test system: histone modifications in 2102EP cells; experiment: Mass spectrometry analysis of histone modifications (Mod Spec); assay type: cell-based, Human
How it was run: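 2102EP cells were treated for 16 h with EC50 concentrations of Quisinostat, JIB-04, Chaetocin, MZ-1, LP99, PRT4165 or GSK343, with DMSO as solvent control. After trypsin harvest, histones were extracted and analysed by mass spectrometry. Raw data were converted to z-scores.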

[3] = test system: CC-R (cisplatin-resistant choriocarcinoma subclones); experiment: XTT cell viability assay, mean per entity CC-R; assay type: cell-based; details: Homo sapiens, after 48 h
Experimental: as §1

2102EP-R = experiment: Flow cytometry apoptosis (Annexin V/PI), 2102EP-R; assay type: cell-based, Human; details: EC50, 16 h, compared to the parental cell line
Experimental: For Annexin V/PI staining, cells were washed with Annexin V Binding Buffer before being resuspended in 70 µl Annexin V Binding Buffer and 2.5 μl Annexin V FITC-conjugate (both Miltenyi Biotec, Bergisch Gladbach, Germany) and 15 µg PI (Sigma-Aldrich, Taufkirchen, Germany) and incubated in the dark at room temperature for 15 min. 500 µl of Annexin V Binding Buffer was added before measurement.

[4] = test system: DNA methylation (5mC, 5hmC) in 2102EP cells; experiment: DNA slot blot (5mC, 5hmC); assay type: cell-based, Human; details: 24 h
[5] = test system: PRKCB, PRKD1, HDAC9, CSF1R expression in GCT cells; experiment: Quantitative RT-PCR of co-treatment target genes; assay type: cell-based, Human; details: 0.2 × EC50, 0.5 × EC50 and EC50
Experimental: Quantitative RT-PCR (qRT-PCR) was performed as described previously. A total amount of 1 µg of RNA was in-vitro transcribed into cDNA by using Oligo(dT)18 Primer and Maxima H Minus Reverse Transcriptase (200 U/µL) (all Thermo Fisher Scientific). qRT-PCR runs were performed on a 384-well C1000 cycler (BioRad, Feldkirchen, Germany). All samples were analyzed in technical triplicates using 7.34 ng of cDNA for each replicate and the SYBR-green-based Luna Universal qPCR Master Mix (New England Biolabs, Frankfurt am Main, Germany). At the end of each run, melting curve analyses were performed. Oligonucleotide sequences are given in the supplement (Additional file 12: Table S2 B).

[6] = 2102EP cells, Mod Spec raw data
[7] = 2102EP, EC50, 16 h, vs solvent control

## CCCc1cc(C)[nH]c(=O)c1CNC(=O)c1cc(-c2ccnc(N3CCN(C)CC3)c2)cc2c1cnn2C(C)C [GSK343]
2102EP (EC)
  EC50: 1 to 50 µM
[1]
  EC50: 9.41 µM
[2]; [6]
  H1.4: K25AC, % of peptide pool: 0.006216%
  H1.4: K25ME1, % of peptide pool: 2.263%
  H1.4: K25ME2, % of peptide pool: 0.05379%
  H1.4: K25ME3, % of peptide pool: 0.00622%
  H1.4: K25UN, % of peptide pool: 97.6705%
  H2A1: K13AC, % of peptide pool: 0.008349%
  H2A1: K13UN, % of peptide pool: 99.9917%
  H2A1: K15AC, % of peptide pool: 0.01155%
  H2A1: K15UB, % of peptide pool: 0%
  H2A1: K15UN, % of peptide pool: 99.9884%
  H2A3: K13AC, % of peptide pool: 0.06695%
  H2A3: K13UN, % of peptide pool: 99.933%
  H2A3: K15AC, % of peptide pool: 0.06714%
  H2A3: K15UB, % of peptide pool: 0%
  H2A3: K15UN, % of peptide pool: 99.9329%
  H2A: K5AC, % of peptide pool: 13.1006%
  H2A: K5UN, % of peptide pool: 86.8994%
  H2A: K9AC, % of peptide pool: 1.639%
  H2A: K9UN, % of peptide pool: 98.3613%
  H2A: K36AC, % of peptide pool: 0.03993%
  H2A: K36UN, % of peptide pool: 99.9601%
  H3: K9AC, % of peptide pool: 0.6993%
  H3: K9ME1, % of peptide pool: 34.216%
  H3: K9ME2, % of peptide pool: 32.7434%
  H3: K9ME3, % of peptide pool: 3.375%
  H3: K9UN, % of peptide pool: 28.9663%
  H3: K14AC, % of peptide pool: 31.7092%
  H3: K14UN, % of peptide pool: 68.2908%
  H3: K18AC, % of peptide pool: 12.5517%
  H3: K18ME1, % of peptide pool: 0.1858%
  H3: K18UN, % of peptide pool: 87.2625%
  H3: K23AC, % of peptide pool: 21.2228%
  H3: K23ME1, % of peptide pool: 0.01722%
  H3: K23UN, % of peptide pool: 78.76%
  H3: K56AC, % of peptide pool: 0.2947%
  H3: K56ME1, % of peptide pool: 0.4365%
  H3: K56UN, % of peptide pool: 99.2689%
  H3: K64AC, % of peptide pool: 0.01667%
  H3: K64UN, % of peptide pool: 99.9833%
  H3: K79AC, % of peptide pool: 0.7184%
  H3: K79ME1, % of peptide pool: 16.7848%
  H3: K79ME2, % of peptide pool: 6.651%
  H3: K79ME3, % of peptide pool: 10.1333%
  H3: K79UN, % of peptide pool: 65.7124%
  H3: K122AC, % of peptide pool: 0.136%
  H3: K122UN, % of peptide pool: 99.864%
  H3: Q19ME1, % of peptide pool: 0.007707%
  H3: Q19UN, % of peptide pool: 99.9923%
  H3: Q55ME1, % of peptide pool: 0.1478%
  H3: Q55UN, % of peptide pool: 99.8522%
  H3: R42ME2, % of peptide pool: 3.196%
  H3: R42UN, % of peptide pool: 96.8039%
  H3: R49ME2, % of peptide pool: 7.636%
  H3: R49UN, % of peptide pool: 92.3639%
  H3R2UN: K4AC, % of peptide pool: 0.06759%
  H3R2UN: K4ME1, % of peptide pool: 18.4584%
  H3R2UN: K4ME2, % of peptide pool: 0.1346%
  H3R2UN: K4ME3, % of peptide pool: 0.0559%
  H3R2UN: K4UN, % of peptide pool: 81.2835%
  H3R2UN: Q5ME1, % of peptide pool: 0.1125%
  H3R2UN: Q5UN, % of peptide pool: 99.8875%
  H3.1: K27AC, % of peptide pool: 2.595%
  H3.1: K27ME1, % of peptide pool: 48.9633%
  H3.1: K27ME2, % of peptide pool: 15.6374%
  H3.1: K27ME3, % of peptide pool: 2.258%
  H3.1: K27UN, % of peptide pool: 30.5467%
  H3.1: K36AC, % of peptide pool: 0.2238%
  H3.1: K36ME1, % of peptide pool: 13.8902%
  H3.1: K36ME2, % of peptide pool: 50.2838%
  H3.1: K36ME3, % of peptide pool: 20.6064%
  H3.1: K36UN, % of peptide pool: 14.9959%
  H3.3: K27AC, % of peptide pool: 7.138%
  H3.3: K27M, % of peptide pool: 0%
  H3.3: K27ME1, % of peptide pool: 44.2688%
  H3.3: K27ME2, % of peptide pool: 12.6213%
  H3.3: K27ME3, % of peptide pool: 4.2957%
  H3.3: K27UN, % of peptide pool: 31.6757%
  H3.3: K36AC, % of peptide pool: 3.015%
  H3.3: K36ME1, % of peptide pool: 12.2658%
  H3.3: K36ME2, % of peptide pool: 51.706%
  H3.3: K36ME3, % of peptide pool: 19.9849%
  H3.3: K36UN, % of peptide pool: 13.0282%
  H4: K5AC, % of peptide pool: 7.684%
  H4: K5UN, % of peptide pool: 92.3159%
  H4: K8AC, % of peptide pool: 10.6823%
  H4: K8UN, % of peptide pool: 89.3177%
[2]; 2102EP cells, Mod Spec raw data, histone H4 K12 acetylated
  H4: K12AC, % of peptide pool: 6.039 % of peptide pool
[2]; 2102EP cells, Mod Spec raw data, histone H4 K12 unmodified
  H4: K12UN, % of peptide pool: 93.9609 % of peptide pool
[2]; 2102EP cells, Mod Spec raw data, histone H4 K16 acetylated
  H4: K16AC, % of peptide pool: 41.5696 % of peptide pool
[2]; 2102EP cells, Mod Spec raw data, histone H4 K16 unmodified
  H4: K16UN, % of peptide pool: 58.4304 % of peptide pool
[2]; 2102EP cells, Mod Spec raw data, histone H4 K20 acetylated
  H4: K20AC, % of peptide pool: 21.2904 % of peptide pool
[2]; 2102EP cells, Mod Spec raw data, histone H4 K20 dimethylated
  H4: K20ME2, % of peptide pool: 42.0499 % of peptide pool
[2]; 2102EP cells, Mod Spec raw data, histone H4 K20 monomethylated
  H4: K20ME1, % of peptide pool: 3.554 % of peptide pool
[2]; 2102EP cells, Mod Spec raw data, histone H4 K20 trimethylated
  H4: K20ME3, % of peptide pool: 1.778 % of peptide pool
[2]; 2102EP cells, Mod Spec raw data, histone H4 K20 unmodified
  H4: K20UN, % of peptide pool: 31.3272 % of peptide pool
[2]; [7]
  change of histone modifications of the expected mode of action (Mod Spec): decreased H3K27 methylation
  off-target changes of histone modifications (Mod Spec): increase of H4K20ac
[3]
  EC50: 9.06 µM
2102EP-R
  apoptosis induction in 2102EP-R: did not induce apoptosis
[4]
  5hmC levels increase compared to solvent control: 30%
[4]; solvent control set to 100%
  5mC levels compared to solvent control: 52%
[5]
  CSF1R expression (qRT-PCR): upregulation
  HDAC9 expression (qRT-PCR): upregulation
